Test results reported in ChEMBL document CHEMBL1201862, “PubChem BioAssay data set” (2004).
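Cells were grown in 96-well plates and exposed to each compound for 48 hours at five concentrations; endpoints were interpolated linearly between bracketing concentrations, or set to the highest concentration if not reached. At the GI50, growth is halved.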 Activity calls are given as the source filed them. Rule as the data show it: active = GI50 up to about 1.1 µM and inactive = higher.

Assays:
Assay in all cases: NCI-60 cell line screen, 48 h
OVCAR-8 = system: OVCAR-8
RXF 393 = system: RXF 393
K562 = system: K562
KM12 = system: KM12
BT-549 = system: BT-549
MDA-MB-231 = system: MDA-MB-231
RPMI-8226 = system: RPMI-8226
Malme-3M = system: Malme-3M
UACC-257 = system: UACC-257
SR = system: SR
COLO 205 = system: COLO 205
SNB-19 = system: SNB-19
NCI/ADR-RES = system: NCI/ADR-RES
SN12C = system: SN12C
LOX IMVI = system: LOX IMVI
SK-MEL-5 = system: SK-MEL-5
MOLT-4 = system: MOLT-4
HCT-15 = system: HCT-15
OVCAR-5 = system: OVCAR-5
NCI-H226 = system: NCI-H226

Row | Compound | GI50 (OVCAR-8) | GI50 (RXF 393) | GI50 (K562) | GI50 (KM12) | GI50 (BT-549) | GI50 (MDA-MB-231) | GI50 (RPMI-8226) | GI50 (Malme-3M) | GI50 (UACC-257) | GI50 (SR) | GI50 (COLO 205) | GI50 (SNB-19) | GI50 (NCI/ADR-RES) | GI50 (SN12C) | GI50 (LOX IMVI) | GI50 (SK-MEL-5) | GI50 (MOLT-4) | GI50 (HCT-15) | GI50 (OVCAR-5) | GI50 (NCI-H226)
1 | Cc1ccc([N+](=O)[O-])c2c(NCCCN(C)C)ccnc12 | 98.4 µM (inactive) | > 100 µM (inactive) | 70.8 µM (inactive) | 69.8 µM (inactive) | > 100 µM (inactive) | > 100 µM (inactive) | > 100 µM (inactive) | 17 µM (inactive) | 39.2 µM (inactive) | 66.4 µM (inactive) | 15 µM (inactive) | > 100 µM (inactive) | 66.2 µM (inactive) | 44.3 µM (inactive) | 44.2 µM (inactive) | 29.6 µM (inactive) | > 100 µM (inactive) | 35 µM | > 100 µM (inactive) | > 100 µM (inactive)
2 | COc1ccc(/C=C(\NC(=O)c2ccccc2)C(=O)NN(C)c2ccnc3cc(Cl)ccc23)cc1OC | 23.4 µM (inactive) | 18.9 µM (inactive) | 18.9 µM (inactive) | 17.6 µM (inactive) | 20.4 µM (inactive) | 24.3 µM (inactive) | 20 µM (inactive) | 26.1 µM (inactive) | 26.4 µM (inactive) | 16.2 µM (inactive) | 24.2 µM (inactive) | 41.2 µM (inactive) | 20.1 µM (inactive) | 25.9 µM (inactive) | 18.7 µM (inactive) | 23.6 µM (inactive) | 18.2 µM (inactive) | 24.7 µM | 45.9 µM (inactive) | 19.1 µM (inactive)
3 | COc1cc(/C=C/C(=N\NC(=S)NN)c2sc(NNC(C)=O)nc2C)ccc1O | > 100 µM (inactive) | > 100 µM (inactive) | > 100 µM (inactive) | 66.2 µM (inactive) | > 100 µM (inactive) | > 100 µM (inactive) | > 100 µM (inactive) | > 100 µM (inactive) | > 100 µM (inactive) | > 100 µM (inactive) | > 100 µM (inactive) | > 100 µM (inactive) | > 100 µM (inactive) | > 100 µM (inactive) | > 100 µM (inactive) | > 100 µM (inactive) | > 100 µM (inactive) | > 100 µM | > 100 µM (inactive) | > 100 µM (inactive)
4 | O=c1cc(CBr)c2ccc(O)cc2o1 | 70.6 µM (inactive) | 31.8 µM (inactive) | 69.8 µM (inactive) | 54.1 µM (inactive) | 35.1 µM (inactive) | > 100 µM (inactive) | 38.5 µM (inactive) | 53.7 µM (inactive) | 64.4 µM (inactive) | 63 µM (inactive) | > 100 µM (inactive) | 84.3 µM (inactive) | 87.9 µM (inactive) | 88.7 µM (inactive) | > 100 µM (inactive) | 45.9 µM (inactive) | 60 µM (inactive) | 71.4 µM | 8.39 µM (inactive) | 78 µM (inactive)
5 | CN(C)c1ccc(/C=C(\NC(=O)c2ccccc2)C2NC(Cc3c[nH]c4ccccc34)C(=O)O2)cc1 (stereo not given) | 5.98 µM (inactive) | > 91 µM (inactive) | 10.9 µM (inactive) | 6.71 µM (inactive) | 12.1 µM (inactive) | > 50.4 µM (inactive) | 6.71 µM (inactive) | 21.4 µM (inactive) | 40.6 µM (inactive) | 41.8 µM (inactive) | 4.06 µM (inactive) | 12 µM (inactive) | > 100 µM (inactive) | > 28.5 µM (inactive) | > 24.8 µM (inactive) | 8.85 µM (inactive) | 16.6 µM (inactive) | 14.3 µM | > 83.6 µM (inactive) | > 100 µM (inactive)
6 | Cc1c(Cl)ccc2c1NC(=O)C2(O)CC(=O)c1ccc(Cl)cc1Cl (stereo not given) | > 50 µM (inactive) | 20.1 µM (inactive) | 19.1 µM (inactive) | > 50 µM (inactive) | > 50 µM (inactive) | 30.5 µM (inactive) | > 41 µM (inactive) | > 47.9 µM (inactive) | > 50 µM (inactive) | 0.264 µM (active) | > 50 µM (inactive) | > 50 µM (inactive) | > 50 µM (inactive) | > 50 µM (inactive) | > 50 µM (inactive) | > 50 µM (inactive) | 22.5 µM (inactive) | > 50 µM | > 50 µM (inactive) | > 29.4 µM (inactive)
7 | COC(=O)C12OCC34C(CC5C(C)=C(O)C(=O)CC5(C)C3C(O)C1O)OC(=O)C(OC(=O)C=C(C)C)C24 (stereo not given) | > 500 µM (inactive) | 303 µM (inactive) | > 486 µM (inactive) | 411 µM (inactive) | 0.26 µM (active) | 0.0234 µM (active) | 361 µM (inactive) | 228 µM (inactive) | 423 µM (inactive) | 0.215 µM (active) | > 500 µM (inactive) | 368 µM (inactive) | > 500 µM (inactive) | > 500 µM (inactive) | 283 µM (inactive) | 191 µM (inactive) | 297 µM (inactive) | > 500 µM | > 500 µM (inactive) | 436 µM (inactive)
8 | COC(=O)c1sc2c(c1C(=O)OC)/C(=N/C(C)(C)C)S/C2=N\C(C)(C)C | 19.5 µM (inactive) | 4.02 µM (inactive) | 18.5 µM (inactive) | 16.3 µM (inactive) | 19 µM (inactive) | 19.9 µM (inactive) | 15.2 µM (inactive) | 20.7 µM (inactive) | 17.9 µM (inactive) | 13.4 µM (inactive) | 17.4 µM (inactive) | 17.8 µM (inactive) | 19.8 µM (inactive) | 16.6 µM (inactive) | 19.5 µM (inactive) | 14.8 µM (inactive) | 15.1 µM (inactive) | 17.2 µM | 20.6 µM (inactive) | 16.3 µM (inactive)
9 | C[C@@H]1CC[C@@H]2[C@@H](C1)O[C@@H]([C@@H](C)OCc1ccccc1)SC2(C)C | 22.4 µM (inactive) | 15.4 µM (inactive) | 18.1 µM (inactive) | 18.7 µM (inactive) | 22.1 µM (inactive) | 21.5 µM (inactive) | 16.5 µM (inactive) | 17.2 µM (inactive) | 19.4 µM (inactive) | 17.5 µM (inactive) | 17.6 µM (inactive) | 19 µM (inactive) | 20.1 µM (inactive) | 17.2 µM (inactive) | 21.2 µM (inactive) | 16.3 µM (inactive) | 16.1 µM (inactive) | 19.5 µM | 18.3 µM (inactive) | 19.4 µM (inactive)
10 | CCCCC1Cc2cc(OC)ccc2-c2n1c1cc(OC)ccc1[n+]2C.CCCCC1Cc2cc(OC)ccc2-c2n1c1ccc(OC)cc1[n+]2C (stereo not given) | 2.75 µM (inactive) | 14.2 µM (inactive) | 0.475 µM (active) | 0.873 µM (active) | 1.66 µM (inactive) | 2.63 µM (inactive) | 0.221 µM (active) | 0.935 µM (active) | 1.04 µM (active) | 2.44 µM (inactive) | 0.401 µM (active) | 0.904 µM (active) | > 100 µM (inactive) | 0.975 µM (active) | 2.87 µM (inactive) | 0.764 µM (active) | 4.79 µM (inactive) | 21.7 µM | 9.77 µM (inactive) | 2.92 µM (inactive)
11 | CCN(CC)CCNC(=O)c1cc2cc(NC(=O)c3cc4cc(NC(=O)c5cc6cc([N+](=O)[O-])ccc6[nH]5)ccc4[nH]3)ccc2[nH]1 | > 100 µM (inactive) | > 100 µM (inactive) | > 100 µM (inactive) | > 100 µM (inactive) | > 100 µM (inactive) | > 100 µM (inactive) | < 0.01 µM (active) | > 100 µM (inactive) | > 100 µM (inactive) | < 0.01 µM (active) | > 100 µM (inactive) | > 100 µM (inactive) | > 100 µM (inactive) | > 100 µM (inactive) | > 100 µM (inactive) | > 100 µM (inactive) | < 0.01 µM (active) | > 100 µM | > 100 µM (inactive) | > 100 µM (inactive)
12 | COc1cc2c3c(c1OC)-c1cc4c(cc1CC3(C#N)N(C(=O)c1ccccc1)CC2)OCO4 (stereo not given) | 20.7 µM (inactive) | 8.73 µM (inactive) | 73.5 µM (inactive) | > 75.5 µM (inactive) | > 100 µM (inactive) | 67.6 µM (inactive) | > 87.5 µM (inactive) | 35.3 µM (inactive) | 60.4 µM (inactive) | 65.9 µM (inactive) | > 100 µM (inactive) | 22.2 µM (inactive) | > 60 µM (inactive) | 50.7 µM (inactive) | > 56.8 µM (inactive) | 29.2 µM (inactive) | 68.4 µM (inactive) | > 100 µM | > 56.2 µM (inactive) | 37.8 µM (inactive)
13 | NC(=O)NCCSC1CCCCC1O (stereo not given) | > 100 µM (inactive) | > 100 µM (inactive) | > 100 µM (inactive) | > 100 µM (inactive) | > 100 µM (inactive) | > 100 µM (inactive) | > 100 µM (inactive) | > 100 µM (inactive) | > 100 µM (inactive) | > 100 µM (inactive) | > 100 µM (inactive) | > 100 µM (inactive) | > 100 µM (inactive) | > 100 µM (inactive) | > 100 µM (inactive) | > 100 µM (inactive) | 26.2 µM (inactive) | > 100 µM | > 100 µM (inactive) | > 100 µM (inactive)
14 | Fc1ccc(C(OCCN2CCN(CCCCl)CC2)c2ccc(F)cc2)cc1 | 27.5 µM (inactive) | 23.7 µM (inactive) | 15.3 µM (inactive) | 18.3 µM (inactive) | 18.6 µM (inactive) | 26.5 µM (inactive) | 20.8 µM (inactive) | 17 µM (inactive) | 21 µM (inactive) | 18.8 µM (inactive) | 16.3 µM (inactive) | 37.6 µM (inactive) | 24.7 µM (inactive) | 25.3 µM (inactive) | 16.8 µM (inactive) | 18 µM (inactive) | 19.9 µM (inactive) | 17.3 µM | 23.1 µM (inactive) | 20.5 µM (inactive)
